Laboratory results from patent publication US20220168276A1, “Mehods and Compositions for Treating SARS-CoV-2 Infection using Carboxyamidotriazole Orotate” (priority 2020, published 2022).
pEC50, pIC50: −log10 of the molar value. Entries after “also recorded” stand apart in the source; their conditions may differ.

Key:
[1] = system: human T-cells; conditions: cited from earlier work
[2] = system: imatinib mesylate-resistant chronic myeloid leukemia cells; conditions: by down-regulating bcr-abl; cited from earlier work
[3] = cited from earlier work
[4] = in vivo; cited from earlier work
[5] = system: SARS-CoV-2; conditions: Vero E6 cells
[6] = system: non-infected Vero E6 cells; format: cell-based; conditions: cell viability, read-out: EC 50 in non-infected Vero E6 cells
[7] = system: Akt and Erk1/2 phosphorylation; conditions: exosomes stimulated HUVEC cell; cited from earlier work
[8] = system: Cytokines in plasma; assay: Phase I trial of CTO in cancer patients: plasma cytokine levels by Milliplex/Luminex panel; format: in vivo, human; parameters: key to GM-CSF plasma level / IFNα2 plasma level / IFNγ plasma level / IL-10 plasma level / IL-12p40 plasma level / IL-12p70 plasma level / IL-13 plasma level / IL-15 plasma level / IL-17A plasma level / IL-1RA plasma level / IL-2 plasma level / IL-4 plasma level / IL-6 plasma level / IL-8 plasma level / IP-10 plasma level / MIP1a plasma level / RANTES plasma level / IL-1β plasma level / TNFα plasma level / VEGF plasma level / EGF plasma level: + increased; − decreased
Description: Such an approach described above is based on unexpected findings when CTO was given to cancer patients who volunteered to participate in Phase I clinical studies of CTO to establish its safety and tolerability.
In a Phase I trial of CTO testing the safety and tolerability of CTO in cancer patients, Plasa samples were obtained from three patients after administration of different doses of CTO daily as follows: 1) NSCLC Patient 002-46 (CTO 555 mg/m2), 2) NSCLC Patient 002-50 (CTO 427 mg/m2) and 3) Ovarian Cancer Patient 002-53(CTO 427 mg/m2) The levels of cytokines were measured by using the HCYTMAG-60K-PX30/Milliplex MAP Human Cytokine/Chemokine Magnetic Bead Panel from Milliplex, USA.

[9] = system: SARS-CoV-2; format: in vivo; conditions: one patient, 600 mg daily oral, second day
[10] = cancer patients, CTO 427-555 mg/m2 daily, vs baseline

Which results are given for `NC(=O)c1nnn(Cc2cc(Cl)c(C(=O)c3ccc(Cl)cc3)c(Cl)c2)c1N` [CAI, carboxyamidotriazole]?
calcium influx and HIV LTR transcription dependent on it [1]: modulated; apoptosis [2]: induces apoptosis; colitis scored macroscopically and microscopically ([3]; animals): inhibited; NF-kB activation ([3]; in vivo): prevented; production of fibrinogenic cytokine transforming growth factor β ([3]; in vivo): inhibited; production of TNF-α, IL-1β and IL-6 ([3]; serum, supernatant of peritoneal macrophages and lamina propria): inhibited; TNF-α and IL-1β at the site of inflammation and in serum [4]: decreased; vascular permeability stimulated by VEGF or histamine [4]: inhibited

With `NC(=O)c1nnn(Cc2cc(Cl)c(C(=O)c3ccc(Cl)cc3)c(Cl)c2)c1N.O=C(O)c1cc(=O)[nH]c(=O)[nH]1` [CTO, 5-amino-1-(4-(4-chlorobenzyl)-1,2,3-triazole-4-carboxamide orotate] as the compound, how does the pIC50 ([5]; read-out: IC50, cytopathic effect (CPE) for SARS-CoV-2, 72 hours post-inoculation, 20 μM highest dose tested) read?
Its pIC50 is under 4.70.

What about the pEC50 [6] of the same compound?
Its pEC50 is 4.83.

What does the source list for `NC(=O)c1nnn(Cc2cc(Cl)c(C(=O)c3ccc(Cl)cc3)c(Cl)c2)c1N.O=C(O)c1cc(=O)[nH]c(=O)[nH]1` [CTO]?
Akt and Erk1/2 phosphorylation [7]: inhibits; EGF plasma level [8, 10]: EGF- (+); GM-CSF plasma level [8, 10]: GM-CSF- (−); IFNα2 plasma level [8, 10]: IFNα2- (+); IFNγ plasma level [8, 10]: IFNγ- (−); IL-1RA plasma level [8, 10]: IL-1RA- (−); IL-1β plasma level [8, 10]: **IL-1β- (−); IL-2 plasma level [8, 10]: IL-2- (−); IL-4 plasma level [8, 10]: IL-4- (−); IL-6 plasma level [8, 10]: IL-6- (−); IL-8 plasma level [8, 10]: IL-8-(−); IL-10 plasma level [8, 10]: IL-10- (+); IL-12p40 plasma level [8, 10]: IL-12p40- (+); IL-12p70 plasma level [8, 10]: IL-12p70- (−); IL-13 plasma level [8, 10]: IL-13-(−); IL-15 plasma level [8, 10]: IL-15- (−); IL-17A plasma level [8, 10]: IL-17A- (−); IP-10 plasma level [8, 10]: IP-10- (−); MIP1a plasma level [8, 10]: MIP1a- (−); RANTES plasma level [8, 10]: RANTES- (+); TNFα plasma level [8, 10]: **TNFα- (−); VEGF plasma level [8, 10]: VEGF- (−); levels of cytokines including EGF, IFN α2, IL-10, IL-12p40 ([8]; plasma, CTO 427 mg/m2 to 555 mg/m2): increase; levels of several cytokines including VEGF, GM-CSF, INF-γ, IL-2, IL-12p70, IL-13, IL-15, IL-17a, IL-1RA, IL-1α, IL-2, IL1-4, IL-6, IL-8, il-10, MIP1-α, IL-1β, TNF-α ([8]; plasma, CTO 427 mg/m2 to 555 mg/m2, forty-eight hours interval after CTO, vs baseline): reduced; also recorded: reduction; concentration up to which CTO inhibited replication of SARS-CoV-2 [5]: up to 5 μM; cell viability ([5]; CTO up to 5 μM): above 90%; Maximum % Inhibition of CPE ([5]; recorded <20 μM concentration): 29.03%; COVID-19 symptoms [9]: great improvement in most of the symptoms; body weight ([9]; lost twelve pounds before treatment): remained at constant weight
